Source: patent US10426168B2, “Agent for controlling noxious arthropods” (Sumitomo Chemical Company, Limited, priority 2015, dated 2019)

System: common house mosquitoes (Culex pipens pallens) at the last instar larval stages
Assay: Test Example 2: mortality of common house mosquito larvae in treated water
Assay type: in vivo
Settings: 24 h, 3.5 ppm in water, 30 last instar larvae, after 1 day
Procedure: Each of the formulations that were prepared in Formulation Example 15 containing Present compounds (1), (2), (3) and (4) was diluted with water so as to make a concentration of each of the compound 500 ppm, to obtain a diluted solution containing Present compounds (1), (2), (3) and (4), respectively. The above-mentioned diluted solutions were added to 100 mL of ion-exchanged water (Concentrations of Present compounds were 3.5 ppm). Thirty (30) heads of common house mosquitoes (Culex pipens pallens) at the last instar larval stages were released into the resulting diluted solutions having the concentration of 3.5 ppm, and after 1 day, the life and death of the insects were examined, and the mortality of insects was calculated by the following equation. Mortality (%)=(Number of the dead insects/Number of test insects)×100

| SMILES | mortality at 3.5 ppm [%] |
| --- | --- |
| CC(C)(N)CNC(=O)c1cc(COCc2ccccc2)on1 [(1)] | ≥ 91 |
| CC(C)(N)CNC(=O)c1cc(COCc2ccc3ccccc3c2)on1 [(2)] | ≥ 91 |
| CCCCc1cc(C(=O)NCC(C)(C)N)no1 [(3)] | ≥ 91 |
| CCCCc1cc(C(=O)NC(C)(C)C(C)(C)N)no1 [(4)] | ≥ 91 |
